The test system of one data set is striatal DREADDs. Put plainly: [11C]clozapine PET DREADD occupancy in AAV-DREADD mice. The following applies: for occupancy of striatal DREADDs: 0.1 mg kg-1 IP.
The next data set addresses T1, P-gp (Homo sapiens, UniProt P08183).
T1 construct: host or cells: Caco-2
The data set can be described thus: P-glycoprotein (P-gp) substrate assay in Caco-2 cells with and without verapamil. The class given is in vitro ADME. Particulars: Caco-2, efflux ratio with/without verapamil. Here is the method:
These experiments were performed by an outside vendor (Eurofins, France). C21 was tested in P-gp substrate assessment assays at 10 µM. The A to B and B to A permeability was measured in Caco-2 cells in the presence and absence of verapamil, a P-gp inhibitor. Efflux ratios (E) were calculated based on the apparent B–A and A–B permeability with and without verapamil. In each experiment, the respective reference compound was tested concurrently with the test compound to assess the assay reliability. Fluorescein was used as the cell monolayer integrity marker. Fluorescein permeability assessment (in the A–B direction at pH 7.4 on both sides) was performed after the permeability assay for the test compound.
In general terms: Caco-2 monolayers are a common model of the intestinal barrier.

For data set [1], the system named is untransfected HEK-293 cells. The data set can be described thus: Negative controls of the functional assays: HEK-293 cells without DREADD. The following applies: for functional response, BRET (Go-alpha-Rluc8, beta1, gamma2-mVenus), no DREADD / functional response, GCaMP6f, no DREADD: HEK-293 cells. The class given is cell-based, human. The procedure: BRET assays were performed to detect receptor ligand-induced Gαo1 protein activation. […] Forty-eight hour after transfection cells were harvested, washed and resuspended in phosphate-buffered saline (PBS). Approximately, 200,000 cells/well were distributed in 96-well plates, and 5 µM Coelenterazine H (substrate for luciferase) was added to each well. Five minutes after addition of Coelenterazine H, ligands were added to each well. The fluorescence of the acceptor was quantified (excitation at 500 nm and emission at 540 nm for 1-s recordings) in a PheraStar FSX plate reader (BMG Labtech) to confirm the constant expression levels across experiments. In parallel, the BRET signal from the same batch of cells was determined as the ratio of the light emitted by mVenus (510–540 nm) over that emitted by RLuc (485 nm). Results were calculated for the BRET change (BRET ratio for the corresponding drug minus BRET ratio in the absence of the drug) 5 min after the addition of the ligands.
Intracellular Ca^2+ concentration was monitored using the fluorescent Ca^2+ biosensor GCaMP6f. HEK-293 cells were transfected with 7 µg/dish of the cDNA encoding for hM3Dq (Addgene #89149) or hM4Di (Addgene #89150) and 7 µg/dish of GCaMP6. Forty-eight hours after transfection, cells were harvested, washed, resuspended in Mg^2+-free Locke’s buffer pH 7.4 (154 mM NaCl, 5.6 mM KCl, 3.6 mM NaHCO3, 2.3 mM CaCl2, and 5 mM HEPES) containing 5.6 mM of glucose and approximately 200,000 cells/well were distributed in black 96-well plates. Increasing concentrations of the indicated compound were added to the cells and fluorescence intensity (excitation at 480 nm, emission at 530 nm) was measured at 18-s intervals during 250 s using a PHERAstar FSX (BMG Labtech). The net change in intracellular Ca^2+ concentration was expressed as F − F0 where F is the fluorescence at a given concentration of ligand and F0 is the average of the baseline values (fluorescence values of buffer-treated wells).
In general terms: BRET reads energy transfer from a luciferase to a nearby fluorophore.

The target in a further data set is hM3Dq (Homo sapiens, UniProt P20309, A239G/Y149C). The data set can be described thus: Locomotor activity in TH-hM3Dq rats. It is filed as in vivo, rat. On the set-up: host or cells: TH-expressing neurons of the ventral tegmental area in TH:Cre rats (AAV transduction, in vivo). The following applies: for hM3Dq-stimulated locomotion: 0.01-0.3 mg kg-1. The procedure:
Tyrosine hydroxylase (TH):Cre rats (n = 9; founder, K. Deisseroth lab) or WT littermates (n = 9) were bilaterally injected with AAV2 hSyn-DIO-hM3Dq-mCherry (1ul/hemisphere, Addgene), and allowed to recover for 2 + weeks. […] Vehicle was administered on 2 separate days, and average locomotion was used for comparison with DREADD agonists. Cohort 2 underwent the same procedures, but with a 4 h testing session, and the following IP injections: vehicle (x2), JHU37152 (0.01–0.3 mg kg^−1), JHU37160 (0.01–0.3 mg kg^−1). All drugs were dissolved in 5% DMSO in saline, and injected 1 ml kg^−1.

Values joined by “and” are separate entries in the source; they are usually repeats but may differ in a detail not shown here. Equal entries are not always repeated. “Also recorded” adds a separate entry of the source.

Sequence of hM3Dq (P20309 whole entry Y149C/A239G): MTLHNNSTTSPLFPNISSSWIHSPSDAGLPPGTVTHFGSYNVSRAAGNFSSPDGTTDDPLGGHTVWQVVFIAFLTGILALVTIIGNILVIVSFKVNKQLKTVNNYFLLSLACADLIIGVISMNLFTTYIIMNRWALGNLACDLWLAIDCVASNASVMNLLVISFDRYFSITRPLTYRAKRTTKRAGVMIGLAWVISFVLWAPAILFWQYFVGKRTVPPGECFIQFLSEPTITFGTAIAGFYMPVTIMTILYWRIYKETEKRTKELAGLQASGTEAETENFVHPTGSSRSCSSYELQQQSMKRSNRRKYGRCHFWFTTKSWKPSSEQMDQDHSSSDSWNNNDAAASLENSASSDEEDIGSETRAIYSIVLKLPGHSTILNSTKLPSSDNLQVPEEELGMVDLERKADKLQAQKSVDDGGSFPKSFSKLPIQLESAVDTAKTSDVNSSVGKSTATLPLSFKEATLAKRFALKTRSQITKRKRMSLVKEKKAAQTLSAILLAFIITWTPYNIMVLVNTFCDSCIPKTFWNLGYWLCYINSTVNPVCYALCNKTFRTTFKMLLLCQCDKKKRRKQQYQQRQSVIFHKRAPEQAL
T1 sequence (P08183 whole entry): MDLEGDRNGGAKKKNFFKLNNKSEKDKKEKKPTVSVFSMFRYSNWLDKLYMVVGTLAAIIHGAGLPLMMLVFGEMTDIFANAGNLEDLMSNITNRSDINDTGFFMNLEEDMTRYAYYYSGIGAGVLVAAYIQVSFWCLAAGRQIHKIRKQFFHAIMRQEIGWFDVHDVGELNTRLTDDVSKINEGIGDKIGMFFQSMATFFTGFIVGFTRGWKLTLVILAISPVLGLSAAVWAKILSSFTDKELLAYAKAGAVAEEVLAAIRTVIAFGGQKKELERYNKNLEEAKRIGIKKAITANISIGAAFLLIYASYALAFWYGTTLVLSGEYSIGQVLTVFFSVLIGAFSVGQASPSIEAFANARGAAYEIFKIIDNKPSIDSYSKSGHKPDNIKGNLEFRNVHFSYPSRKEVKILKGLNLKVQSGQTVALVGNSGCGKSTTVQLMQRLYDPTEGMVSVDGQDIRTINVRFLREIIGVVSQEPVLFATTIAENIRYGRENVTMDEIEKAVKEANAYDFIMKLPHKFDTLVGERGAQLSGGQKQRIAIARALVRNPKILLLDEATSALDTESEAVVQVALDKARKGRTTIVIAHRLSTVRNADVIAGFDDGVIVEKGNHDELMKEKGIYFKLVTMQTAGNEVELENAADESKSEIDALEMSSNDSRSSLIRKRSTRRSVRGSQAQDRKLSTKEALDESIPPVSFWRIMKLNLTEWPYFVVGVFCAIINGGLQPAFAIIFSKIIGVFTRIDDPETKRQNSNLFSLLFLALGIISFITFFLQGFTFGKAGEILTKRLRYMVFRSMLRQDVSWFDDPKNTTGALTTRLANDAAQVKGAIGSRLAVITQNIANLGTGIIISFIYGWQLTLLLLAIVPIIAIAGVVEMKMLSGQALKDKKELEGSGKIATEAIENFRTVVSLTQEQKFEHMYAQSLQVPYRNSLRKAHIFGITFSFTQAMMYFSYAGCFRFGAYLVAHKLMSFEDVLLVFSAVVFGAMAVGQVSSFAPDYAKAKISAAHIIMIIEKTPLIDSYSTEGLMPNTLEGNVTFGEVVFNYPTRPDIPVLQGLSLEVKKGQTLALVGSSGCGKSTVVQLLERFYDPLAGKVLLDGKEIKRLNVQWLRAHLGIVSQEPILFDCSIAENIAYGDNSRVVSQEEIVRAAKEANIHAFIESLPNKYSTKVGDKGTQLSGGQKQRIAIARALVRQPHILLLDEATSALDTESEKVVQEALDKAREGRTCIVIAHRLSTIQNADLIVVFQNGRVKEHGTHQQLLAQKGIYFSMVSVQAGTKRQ
Experimental for striatal DREADDs: Animals were anesthetized with isoflurane or a mix of ketamine/xylazine and prepped on a stereotaxic apparatus (Kopf, Germany). […] When indicated, animals were pretreated with vehicle or the indicated drug 10 min before the injection of the PET radiotracer. Total acquisition time was 60 min.
In all cases, the PET data were reconstructed and corrected for dead-time and radioactive decay. All qualitative and quantitative assessments of PET images were performed using the PMOD software environment (PMOD Technologies, Zurich Switzerland). Binding potential BPND (a relative measure of specific binding) was calculated using a reference tissue model using the cerebellum as a reference tissue in rodents. In macaques, the kinetic data were fitted to a two-tissue compartment model and the concentration of parent in plasma was used as an input function, then the volume of distribution ratios compared to cerebellum were calculated to establish BPND. In all cases, the dynamic PET images were coregistered to MRI templates and time-activity curves were generated using predefined volumes of interest (macaques) or manually drawn in rodents and the described analyses were performed. Receptor occupancy was calculated using the formula: occupancy = (BPND^0 − BPND^Drug)/BPND^0 × 100, where BPND^0 is the binding potential of the baseline condition and BPND^Drug the binding potential when the animals were pretreated with the drug.

As to `CCN1CCN(C2=Nc3cc(Cl)ccc3Nc3c(F)cccc32)CC1` [JHU37160, 8-Chloro-11-(4-ethylpiperazin-1-yl)-4-fluoro-5H-dibenzo[b,e][1,4]diazepine], the “occupancy of striatal DREADDs” value in the data set with striatal DREADDs is on record as 15–20%. Besides, the figures for the P-gp substrate entry at P-gp and on P-gp (listed as J60) were “Neither JHU37152 nor JHU37160 were P-gp substrates” and “none of these compounds is a substrate for P-gp”, respectively. For the same compound, in data set [1], the “functional response in HEK-293 cells lacking DREADDs” value is listed as “no responses were observed; also recorded: did not produce any agonistic effect”. Also, the “functional response, BRET (Go-alpha-Rluc8, beta1, gamma2-mVenus), no DREADD” value (from here on “functional response, BRET … no DREADD”) in data set [1] is “did not show any functional response”. For the same compound, the “functional response, GCaMP6f, no DREADD” value in data set [1] is “did not show any functional response”. Also, the “Locomotor activity, individual animals (Figure 3 Panel G)” value at hM3Dq (dose 0.01, listed as J60) was 279.417 and 1024.06 and 48.7042 and 167.624 and 1237.61 and 111.992 and 663.301; at hM3Dq (dose 0.1, listed as J60), 1035.55 and 900.553 and 68.6081 and 759.611 and 1367.43 and 667.9 and 184.82. The hM3Dq-stimulated locomotion entry on hM3Dq (TH-hM3Dq rats) was “robust, selective increases in hM3Dq-stimulated locomotion”.

For the compound `CCN1CCN(C2=Nc3cc(Cl)ccc3Nc3cccc(F)c32)CC1` [JHU37152, 8-Chloro-11-(4-ethylpiperazin-1-yl)-1-fluoro-5H-dibenzo[b,e][1,4]diazepine], in the data set on striatal DREADDs, the “occupancy of striatal DREADDs” value is 15–20%. For the same compound, the P-gp substrate entry is “Neither JHU37152 nor JHU37160 were P-gp substrates” on P-gp and “none of these compounds is a substrate for P-gp” at P-gp (listed as J52). Moreover, the “functional response in HEK-293 cells lacking DREADDs” value in data set [1] is “no responses were observed; also recorded: did not produce any agonistic effect”. Further, the “functional response, BRET … no DREADD” value in data set [1] was “did not show any functional response”. Further, the “functional response, GCaMP6f, no DREADD” value in data set [1] is on record as “did not show any functional response”. Moreover, the “Locomotor activity, individual animals (Figure 3 Panel G)” value was 94.7443 and 207.479 and 64.3586 and 274.036 and 1667.81 and 1211.25 and 111.862 on hM3Dq (dose 0.01, listed as J52); 1115.35 and 940.001 and 366.654 and 337.558 and 1635.37 and 694.852 and 547.724 at hM3Dq (dose 0.1, listed as J52). For the same compound, on hM3Dq (TH-hM3Dq rats), the hM3Dq-stimulated locomotion result is given as “robust, selective increases in hM3Dq-stimulated locomotion”.

On to `c1ccc2c(c1)N=C(N1CCNCC1)c1ccccc1N2` [C21], for which the “in vivo DREADD occupancy ([11C]CLZ displacement)” value in the data set on striatal DREADDs (1 mg/kg IP) is recorded as ~ 10%. Also, on P-gp, the P-gp substrate entry was “none of these compounds is a substrate for P-gp”. Further, in data set [1], the “functional response in HEK-293 cells lacking DREADDs” value was “Neither clozapine nor C21 produced detectable functional responses”; the “functional response, BRET … no DREADD” value is “did not show any functional response”; the “functional response, GCaMP6f, no DREADD” value is given as “did not show any functional response”. Besides, the locomotor activity entry at hM3Dq (TH-hM3Dq rats, 1 or 5 mg/kg IP) was “significant increases in locomotor activity”.

For the origin of these results see PMC6788984, “High-potency ligands for DREADD imaging and activation in rodents and monkeys” (Nature Communications, 2019).
